Experimental data from PubChem BioAssay (NCI).
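1) Cells in 96-well plates. 2) Compound, 48 h, 5 concentrations. 3) Linear interpolation between surrounding doses. 4) Unreached endpoint = highest concentration. TGI: total growth inhibition.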

What was measured:
Assay in all cases: NCI anticancer screen, dose series, 48 h
U251 CNS = tested on: U251 CNS
NCI/ADR-RES ovarian = tested on: NCI/ADR-RES ovarian
SNB-75 CNS = tested on: SNB-75 CNS
IGROV1 ovarian = tested on: IGROV1 ovarian
HOP-62 NSCLC = tested on: HOP-62 NSCLC
UACC-62 melanoma = tested on: UACC-62 melanoma
CCRF-CEM leukemia = tested on: CCRF-CEM leukemia
SK-OV-3 ovarian = tested on: SK-OV-3 ovarian
MALME-3M melanoma = tested on: MALME-3M melanoma
MDA-N = tested on: MDA-N
A498 renal = tested on: A498 renal
OVCAR-4 ovarian = tested on: OVCAR-4 ovarian
CAKI-1 renal = tested on: CAKI-1 renal
SK-MEL-2 melanoma = tested on: SK-MEL-2 melanoma
EKVX NSCLC = tested on: EKVX NSCLC
SN12C renal = tested on: SN12C renal
PC-3 prostate = tested on: PC-3 prostate
HCT-15 colon = tested on: HCT-15 colon
DU-145 prostate = tested on: DU-145 prostate
SF-539 CNS = tested on: SF-539 CNS

Row | Structure (SMILES) | TGI (U251 CNS) | TGI (NCI/ADR-RES ovarian) | TGI (SNB-75 CNS) | TGI (IGROV1 ovarian) | TGI (HOP-62 NSCLC) | TGI (UACC-62 melanoma) | TGI (CCRF-CEM leukemia) | TGI (SK-OV-3 ovarian) | TGI (MALME-3M melanoma) | TGI (MDA-N) | TGI (A498 renal) | TGI (OVCAR-4 ovarian) | TGI (CAKI-1 renal) | TGI (SK-MEL-2 melanoma) | TGI (EKVX NSCLC) | TGI (SN12C renal) | TGI (PC-3 prostate) | TGI (HCT-15 colon) | TGI (DU-145 prostate) | TGI (SF-539 CNS)
1 | C[C@@H](c1ccccc1)N1C[C@@H](c2ccc3c(c2)OCO3)[C@@H]2C(=O)CCC[C@@H]21 | > 100 µM | > 100 µM | > 100 µM | > 100 µM | > 100 µM | 52 µM | > 100 µM | > 100 µM | 87.5 µM | > 100 µM | 59.1 µM | > 100 µM | > 100 µM | 94.8 µM | > 100 µM | > 100 µM | > 100 µM | > 100 µM | > 100 µM | 
2 | Cc1ccc2c(ccc3ncc(CNc4ccc(NS(C)(=O)=O)cc4)c32)[nH]1 | 72.2 µM | > 100 µM | 34 µM | > 100 µM | 67.2 µM | 34.2 µM | > 100 µM | 84.2 µM | 34.5 µM | 32.1 µM | 33.8 µM | 58.9 µM | 58 µM | 38.5 µM | > 100 µM | 92.5 µM | 68.7 µM | > 100 µM | 42.6 µM | 50.5 µM
3 | CCc1cc2c(cc1C(=O)CCC(=O)O)CC1(C2)Cc2cc(CC)c(C(=O)CCC(=O)O)cc2C1 | > 100 µM | > 100 µM | > 100 µM | > 100 µM | > 100 µM |  | > 100 µM | > 100 µM | > 100 µM | > 100 µM | > 100 µM | > 100 µM | > 100 µM | > 100 µM | > 100 µM | > 100 µM | > 100 µM | > 100 µM | > 100 µM | > 100 µM
4 | CCOc1cc2c(cc1O)C=C[C@@H]1[C@@H]2CC[C@]2(C)[C@@H](O)CC[C@@H]12 | > 38.3 µM | 12.8 µM | > 58.6 µM | > 75.1 µM | 49.3 µM | > 43.1 µM | > 42.5 µM | > 70.2 µM | 35.6 µM | > 100 µM | 57.9 µM | > 100 µM | 28.9 µM | 42 µM | > 100 µM | > 77.3 µM | > 100 µM | 20.1 µM | 26.8 µM | 7.03 µM
5 | Cc1ccc(F)c2[nH]c(-c3ccccc3)cc(=O)c12 | > 100 µM | > 100 µM | > 30.6 µM | > 100 µM | > 100 µM | > 100 µM | > 100 µM | > 100 µM | > 100 µM | > 100 µM | > 100 µM | > 100 µM | > 100 µM | > 100 µM | > 100 µM | > 100 µM | > 100 µM | > 100 µM | > 100 µM | 28.5 µM
6 | COC(=O)c1ccc(NCC2=CC(=O)C=CC2=O)cc1O | > 100 µM | 47 µM | 42.9 µM | 41.6 µM | 34.5 µM | 30.4 µM | > 100 µM | 42.5 µM | 28.6 µM | 35.8 µM | 32.8 µM | 30.3 µM | 32.8 µM | > 100 µM | 31.6 µM | 66.5 µM | > 100 µM | 34.5 µM | 29 µM | 28 µM
7 | CC1(C)C(CBr)=[N+]([O-])C(C)(C)N1O | > 10 µM | > 10 µM | > 10 µM | > 10 µM | > 10 µM | > 10 µM | 4.49 µM | > 10 µM | 7.06 µM | > 10 µM | > 10 µM | 4.23 µM | 5.87 µM | > 10 µM | > 8.02 µM | 9.93 µM | > 10 µM | > 8.12 µM | > 10 µM | > 7.83 µM
8 | CCOP(=O)(OCC)/C(=C\n1ccc(=O)[nH]c1=S)C(=O)OC | > 100 µM | > 100 µM | > 100 µM | > 100 µM | > 100 µM | > 100 µM | > 100 µM | > 100 µM | > 100 µM | > 100 µM | > 100 µM | > 100 µM | > 100 µM | > 100 µM | > 100 µM | > 100 µM | > 100 µM | > 100 µM | > 100 µM | > 100 µM
9 | CC1CN=C(N(C(=O)Nc2ccc(Cl)cc2)c2cccc(Cl)c2)S1 (centres undefined) | > 100 µM | > 100 µM | > 100 µM | > 100 µM | > 100 µM |  | > 100 µM | > 100 µM | > 100 µM | > 100 µM | 91.8 µM | > 100 µM | > 100 µM | 44.9 µM | > 100 µM | 83.9 µM | > 100 µM | > 100 µM | > 100 µM | > 100 µM
10 | C1=C2C3=[N+](CCCC3)CC2Cc2sccc21 (centres undefined) | > 100 µM | > 100 µM | > 100 µM | > 100 µM | > 100 µM | > 100 µM | > 100 µM | > 100 µM | > 100 µM | > 100 µM | > 100 µM | > 100 µM | > 100 µM | > 100 µM | > 100 µM | > 100 µM | > 100 µM | > 100 µM | > 100 µM | 
11 | COc1ccc(/C(=N/OCCCC(=O)O)c2cccs2)cc1 | > 100 µM | > 100 µM | > 100 µM |  | > 100 µM | > 100 µM | > 100 µM | > 100 µM | > 100 µM | > 100 µM | > 100 µM | > 100 µM | > 100 µM | > 100 µM | > 100 µM | > 100 µM | > 100 µM | > 100 µM | > 100 µM | > 100 µM
12 | CC(=O)OCCCCn1nncc1Cn1ccc(=O)n(Cc2cnnn2CCCCOC(C)=O)c1=O | > 100 µM | > 100 µM | > 100 µM | > 100 µM | > 100 µM |  | 2.61 µM | > 100 µM | > 100 µM | > 100 µM | > 100 µM | > 100 µM | > 100 µM | > 100 µM | > 100 µM | > 100 µM | > 100 µM | > 100 µM | > 100 µM | > 100 µM
